Source: patent publication US20220267444A1, “ANTI-PD-1 ANTIBODY AND MEDICAL USE THEREOF” (CTTQ-AKESO (SHANGHAI) BIOMED. TECH. CO., LTD., priority 2019, published 2022)

Legend:
[1] = system: MSI-H/dMMR tumor SW48 cells; test: Raji-PDL1, PBMC and SW48 co-culture with antibodies and anlotinib, IL-2 ELISA; assay type: cell-based, human; details: 3 days, compared to anti-HEL antibody
Protocol: SW48 is a human colorectal cancer cell line and is identified with MSI-H/dMMR phenotype (Branch P et al., (1995), Cancer Res, 55(11): 2304-2309). It was used for detecting the enhanced immune cell response to tumor of MSI-H/dMMR phenotype by 14C12H1L1(hG1TM).
PBMCs were isolated from healthy human peripheral blood according to the Ficoll-Paque™ Plus reagent instruction, and the isolated PBMCs were counted and frozen. Raji-PDL1 cells were cultured in RPMI 1640+10% FBS complete medium, and SW48 cells (purchased from GuangZhou Jennio Biotech Co., Ltd.) were cultured in DMEM+10% FBS complete medium. PBMCs were thawed and activated with 0.5 μg/mL SEB for two days. On the day of the experiment, Raji-PDL1 cells were treated with 2 μg/mL MMC for 1 h. SEB-activated PBMCs and MMC-treated Raji-PDL1 cells were collected, washed twice with PBS, resuspended in RPMI 1640+10% FBS complete medium and counted. Raji-PDL1 and PBMC cells were seeded on 96-well plates at 1×10^5 cells/well. SW48 cells in logarithmic growth phase were collected and seeded on the 96-well plate at 2×10^5 cells/well. The diluted antibody and anlotinib was added according to the study design. The mixture was mixed evenly and incubated in a 5% CO2 incubator at 37° C. for 3 days. After 3 days, the cell culture supernatant was collected and tested for IL-2 according to ELISA KIT instruction. […]

[2] = system: CHO-K1-PD1 cells; test: Antibody-mediated phagocytic activity (ADCP) of murine macrophages on CHO-K1-PD1; assay type: cell-based, mouse; details: CHO-K1-PD1-CFSE target cells
Protocol: To detect the antibody dependent cellular phagoxytosis (ADCP) activity, murine macrophages were used as effector cells and cell lines overexpressing PD1 were used as target cells. The femoral bone marrow of Blab/c mice (purchased from Guangdong Medical Laboratory Animal Center) was first aseptically collected and lysed by erythrocyte lysis buffer on ice for 5 min. The lysis was terminated with DMEM complete medium (containing 10% FBS), and the lysate was centrifuged at 1000 rpm and washed twice. The cell pellet was resuspended in 10 mL of DMEM complete medium and M-CSF were added at a working concentration of 100 ng/mL. […] The supernatant was discarded and the cells were suspended in DMEM complete medium (containing 10% FBS) and counted. […] CHO-K1-PD1 cells (a CHO-K1 cell line overexpressing PD1) were centrifuged at 170×g for 5 min, washed once with PBS, resuspended and counted. The viability was determined. […]
The test antibodies were diluted in DMEM complete medium to 20, 2 and 0.2 μg/mL (the working concentrations were 10, 1 and 0.1 μg/mL). […] The cells were transferred to loading tube and analyzed by BD FACS Calibur flow cytometer. […] The phagocytosis rate was determined as the ratio of the number of double positive cells to the number of APC positive cells, and the antibody-mediated ADCP activity was evaluated. […]

[3] = system: human colorectal cancer SW837 cells; test: Raji-PDL1, PBMC and SW837 co-culture, IL-2 ELISA; assay type: cell-based; details: 3 days
Protocol: SW837 is a human colorectal cancer cell line of non-MSI-H/dMMR (i.e., MSS) phenotype (Guo J et al., Cancer Res., 2011; 71(8):2978-2987), and was used for detecting the enhanced immune cell response to tumor of non-MSI-H/dMMR (i.e., MSS) phenotype by 14C12H1L1(hG1TM) in this example.
PBMCs were isolated from healthy human peripheral blood according to the Ficoll-Paque™ Plus reagent instruction, and the isolated PBMCs were counted and frozen. Raji-PDL1 cells were cultured in RPMI 1640+10% FBS complete medium, and SW837 cells (purchased from Shanghai Honsun Biological Technology Co., Ltd) were cultured in 10% FBS+Leibovitz's L-15 complete medium (purchased from Gibco). PBMCs were thawed and activated with 0.5 μg/mL SEB for two days. On the day of the experiment, Raji-PDL1 cells were treated with 2 μg/mL MMC for 1 h. SEB-activated PBMCs and MMC-treated Raji-PDL1 cells were collected, washed twice with PBS, resuspended in RPMI 1640+10% FBS complete medium and counted. Raji-PDL1 and PBMC cells were seeded on 96-well plates at 1×10^5 cells/well. SW837 cells in logarithmic growth phase were collected and seeded on the 96-well plate at 5×10^4 cells/well. The diluted antibody was added according to the study design. The mixture was mixed evenly and incubated in a 5% CO2 incubator at 37° C. for 3 days. […]

[4] = system: human nasopharyngeal cancer CNE-2Z cells; test: Raji-PDL1, PBMC and CNE-2Z co-culture with antibodies and anlotinib, IL-2 ELISA; assay type: cell-based; details: CNE-2Z co-culture, 3 days; compared to the anti-HEL antibody and the anlotinib monotherapies
Protocol: PBMCs were isolated from healthy human peripheral blood according to the Ficoll-Paque™ Plus reagent instruction, and the isolated PBMCs were counted and frozen. Raji-PDL1 and CNE-2Z cells (purchased from GuangZhou Jennio Biotech Co., Ltd.) were cultured in RPMI 1640+10% FBS complete medium. PBMCs were thawed and activated with 0.5 μg/mL SEB for two days. On the day of the experiment, Raji-PDL1 cells were treated with 2 μg/mL MMC for 1 h. SEB-activated PBMCs and MMC-treated Raji-PDL1 cells were collected, washed twice with PBS, resuspended in RPMI 1640+10% FBS complete medium and counted. Raji-PDL1 and PBMC cells were seeded on 96-well plates at 1×10^5 cells/well. CNE-2Z cells in logarithmic growth phase were collected and seeded on the 96-well plate at 3×10^4 cells/well. The diluted antibodies and anlotinib were added according to the study design. The mixture was mixed evenly and incubated in a 5% CO2 incubator at 37° C. for 3 days. After 3 days, the cell culture supernatant was collected and tested for IL-2 according to ELISA KIT instruction. The media in this experiment were all 10% FBS+RPMI 1640.

nivolumab: anti-PD-1 antibody nivolumab (trade name: Opdivo), purchased from Bristol-Myers Squibb [reference compound]
immune response of immune cells (secretion level of IL-2) [1]: significantly increased secretion level of IL-2
ADCP effect [2]: have ADCP effects
phagocytic rate relative to that of the isotype control anti-HEL antibody ([2]; at the same concentration, 2 h, flow cytometry): 4.26 times
immune response of immune cells (IL-2) [3]: significantly enhanced the immune response
immune response of immune cells (IL-2 secretion level) [4]: significantly increased IL-2 secretion level
